From patent US10570117B2, “Phenylimidazole compound” (Otsuka Pharmaceutical Factory, Inc., priority 2015, dated 2020)
In brackets after ≈: the same amount, converted by molar mass. Read-outs that look alike come from different tables or passages of the source.

What was measured:
[1] = Solubility in gastric juice or intestinal juice model fluid (precipitation method using DMSO); format: physicochemical; conditions: room temperature
In short: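 Dissolved amount (μg/mL) quantified by UV of filtrate versus pre-made calibration curves. Precipitation approach: DMSO solutions spiked into pH 1.2 (JP 1st fluid) or pH 6.8 (JP 2nd fluid) medium, shaken at room temperature for 24 h before insolubles were filtered off.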

[2] = system: lipoprotein lipase (LPL) gene; test: LPL mRNA elevating action (RT-PCR quantification of LPL mRNA in C2Cl2 cells); format: cell-based, mouse; conditions: compound 10 μM, ratio relative to the amount of LPL mRNA in cells with DMSO only; for fold induction at 10 µM: Mus musculus, 24 h, read-out: Rate of increase in LPL mRNA
Description: LPL mRNA Elevating Action
C2Cl2 cells (cell strain derived from striated muscle of mouse) were seeded in 96-well plates using a DMEM medium (Gibco) (containing 2 mM L-glutamine and 10% fetal bovine serum). After the cells were grown, the medium was removed. Subsequently, media obtained by adding dimethyl sulfoxide (DMSO) solutions of the compounds to the same medium as described above to a concentration of 10 μM were individually added to the cells and allowed to stand for 24 hours. The compound-containing media were removed, and the plates were washed with phosphate buffered saline. Thereafter, the remaining cells were lysed and subjected to a reverse transcription polymerase chain reaction (RT-PCR reaction) to obtain cDNA. Primers specific to lipoprotein lipase (LPL) gene, a necessary enzyme, etc., were added to the obtained cDNA. The mixture was set in 7500 Fast Real Time PCR System produced by Applied Biosystem to perform a PCR reaction (20 cycles) and the amount of LPL mRNA amplified was quantified. The LPL mRNA elevating action of each compound in the test cells was indicated as the ratio relative to the amount of LPL mRNA in cells allowed to stand in a medium to which only DMSO was added, with the amount being defined as 1.
As Comparative Example 1, a test was performed in the same manner as above, using a compound disclosed as the compound of Example 57 in WO2010/090200.

[3] = pH 1.2, simulated gastric fluid, kinetic from dmso stock, 1st fluid for Disintegration Test of Japanese Pharmacopoeia (pH: 1.2), read-out: Solubility (μg/mL) 1st fluid
[4] = pH 6.8, kinetic from dmso stock, 2nd fluid for Disintegration Test of Japanese Pharmacopoeia (pH: 6.8), read-out: Solubility (μg/mL) 2nd fluid

Row | SMILES | solubility at 24 h [1, 3] [µg/mL] | solubility at 24 h [1, 4] [µg/mL] | melting point | Solubility (μg/mL) 1st fluid ([1]; 1st fluid for Disintegration Test of Japanese Pharmacopoeia (pH: 1.2), 24 hours) [µg/mL] | Solubility (μg/mL) 2nd fluid ([1]; 2nd fluid for Disintegration Test of Japanese Pharmacopoeia (pH: 6.8), 24 hours) [µg/mL] | fold induction at 10 µM [2] | Rate of increase in LPL mRNA ([2]; 24 hours)
1 | COc1cc(OCc2ccc(C(F)(F)F)nc2)c(C)cc1-c1cnc(C2CCC(F)(F)CC2)[nH]1 [Example 12] | 15.6 (≈ 32.4 µM) | < 1.7 | – | – | – | 2.23 | –
2 | COc1c(OCc2ccc(C(F)(F)F)nc2)ccc(-c2cnc(C3CCC(F)(F)CC3)[nH]2)c1OC [Example 14] | > 99 | < 0.4 | – | – | – | 5.42 | –
3 | COc1cc(OCc2cnc(Cl)cn2)ccc1-c1c[nH]c(-c2ccc(Cl)nc2)n1 [Example 20] | – | – | 219 to 221 °C | – | – | 2.78 | –
4 | COc1cc(OCc2ccc(C(F)(F)F)nc2)ccc1-c1c[nH]c(-c2ccc(Cl)cn2)n1 [Example 32] | – | – | 186 to 189 °C | – | – | 2.58 | –
5 | COc1cc(OCc2ncccc2C#N)ccc1-c1c[nH]c(-c2ccc(Cl)nc2)n1 [Example 33] | – | – | 193 to 195 °C | – | – | 2.92 | –
6 | COc1cc(OCc2cccc(C(F)(F)F)n2)ccc1-c1c[nH]c(-c2ccc(Cl)nc2)n1 [Example 36] | – | – | 222 to 224 °C | – | – | 2.4 | –
7 | COc1cc(OCc2ccc(C(F)(F)F)nc2)ccc1-c1nc(C2CCCCC2)[nH]c1C [Example 48] | > 89 | 80.8 (≈ 181 µM) | – | – | – | 3.02 | –
8 | COc1cc(-c2c[nH]c(-c3ccc(Cl)nc3)n2)cc(OC)c1OCc1ccc(C(F)(F)F)cn1 [Example 71] | – | – | 171 to 173 °C (dec.) | – | – | 2.37 | –
9 | COc1cc(-c2c[nH]c(C3CCCCCC3)n2)ccc1OCc1ccc(C(F)(F)F)cn1 [Example 72] | > 116 | 1.8 (≈ 4.04 µM) | – | – | – | 2.75 | –
10 | COc1cc(OCc2cnc(Cl)cn2)ccc1-c1c[nH]c(-c2ccc(F)nc2)n1 [Example 123] | – | – | 197 to 199 °C | – | – | 3.22 | –
11 | COc1cc(OCc2ccc(C(F)(F)F)cn2)ccc1-c1nc(-c2ccc(Cl)nc2)n(CC2CC2)c1C [Example 156] | 104 (≈ 197 µM) | 3.6 (≈ 6.81 µM) | – | – | – | 3.27 | –
12 | COc1cc(-c2[nH]c(C3CCCC(F)(F)C3)nc2Br)ccc1OCc1ccc(C(F)(F)F)cn1 (stereo not shown) [Example 171] | – | – | – | >109 | <1.9 | – | 2.89
13 | COc1cc(OCc2cnc(C)cn2)ccc1-c1nc(-c2ccc(Cl)nc2)[nH]c1Cl [Example 219] | 7.5 (≈ 17 µM) | < 1.6 | – | – | – | 2.42 | –
14 | COc1cc(O)ccc1-c1cnc(C2CCC(F)(F)CC2)[nH]1 [Example 338] | > 62 | 59.7 (≈ 194 µM) | – | – | – | 1.32 | –
15 | COc1cc(-c2cnc(C3CCC(F)(F)C3)[nH]2)ccc1OCc1ncc(C(F)(F)F)cc1F (stereo not shown) [Example 341] | 91.7 (≈ 195 µM) | 15.8 (≈ 33.5 µM) | – | – | – | 1.75 | –
16 | COc1cc(-c2cnc(C3CCCC3)[nH]2)ccc1OCc1ncc(C(F)(F)F)cc1F [Example 366] | 79.2 (≈ 182 µM) | 24.7 (≈ 56.7 µM) | – | – | – | 1.95 | –
17 | COc1cc(-c2cnc(C3CCC3)[nH]2)ccc1OCc1ncc(C(F)(F)F)cc1F [Example 372] | 80.4 (≈ 191 µM) | 33.5 (≈ 79.5 µM) | – | – | – | 1.95 | –
18 | COc1cc(-c2cnc(CCC(F)(F)F)[nH]2)ccc1OCc1ncc(C(F)(F)F)cc1F [Example 391] | 1.1 (≈ 2.37 µM) | 7.1 (≈ 15.3 µM) | – | – | – | 1.58 | –

Further lines, with some results ahead:

Row | solubility at 24 h [1, 3] [µg/mL] | solubility at 24 h [1, 4] [µg/mL] | melting point | Solubility (μg/mL) 1st fluid ([1]; 1st fluid for Disintegration Test of Japanese Pharmacopoeia (pH: 1.2), 24 hours) [µg/mL] | Solubility (μg/mL) 2nd fluid ([1]; 2nd fluid for Disintegration Test of Japanese Pharmacopoeia (pH: 6.8), 24 hours) [µg/mL] | SMILES | fold induction at 10 µM [2] | Rate of increase in LPL mRNA ([2]; 24 hours)
19 | 9.4 (≈ 19.9 µM) | 1.2 (≈ 2.54 µM) | – | – | – | COc1cc(OCc2ncc(Br)cc2F)ccc1-c1cnc(-c2ccc(F)nc2)[nH]1 [Example 111, 5-bromo-3-fluoro-2-[[4-(2-(6-fluoropyridin-3-yl)-1H-imidazol-5-yl)-3-methoxyphenoxy]methyl]pyridine] | 2.46 | –
20 | 80.2 (≈ 175 µM) | 2.6 (≈ 5.67 µM) | – | – | – | COc1cc(OC(C)c2ccc(C(F)(F)F)cn2)ccc1-c1c[nH]c(-c2ccc(F)nc2)n1 (stereo not shown) [Example 117] | 3.38 | –
21 | 94.9 (≈ 195 µM) | 4 (≈ 8.21 µM) | – | – | – | COc1cc(OC(C)c2ncc(Br)cc2F)ccc1-c1cnc(-c2ccc(F)nc2)[nH]1 (stereo not shown) [Example 128] | 2.28 | –
22 | – | – | 176 to 180 °C | – | – | COc1cc(OCc2ncc(Cl)cc2Br)ccc1-c1cnc(-c2ccc(F)nc2)[nH]1 [Example 134] | 2.85 | –
23 | – | – | 168 to 173 °C | – | – | COc1cc(OCc2ccc(F)cc2F)ccc1-c1cnc(-c2ccc(F)nc2)[nH]1 [Example 142] | 2.27 | –
24 | – | – | 189 to 191 °C | – | – | COc1cc(OCc2cccc(C(F)(F)F)n2)ccc1-c1[nH]c(-c2ccc(F)nc2)nc1Cl [Example 172] | 3.12 | –
25 | – | – | 163 to 166 °C | – | – | COc1cc(OCc2ccc(C(F)(F)F)cc2)ccc1-c1[nH]c(-c2ccc(F)nc2)nc1Cl [Example 176] | 2.83 | –
26 | – | – | 222 to 223 °C (dec.) | – | – | COc1cc(OCc2ccc(C(F)(F)F)nc2)ccc1-c1nc(-c2ccc(Cl)nc2)[nH]c1Br [Example 222] | 2.89 | –
27 | – | – | 195 to 197 °C (dec.) | – | – | COc1cc(OCc2ccc(C(F)(F)F)nc2)ccc1-c1nc(-c2ccc(F)nc2)[nH]c1Br [Example 224, 5-[(4-(4-bromo-2-(6-fluoropyridin-3-yl)-1H-imidazol-5-yl)-3-methoxyphenoxy)methyl]-2-(trifluoromethyl)pyridine] | 2.29 | –
28 | – | – | 176 to 177 °C | – | – | COc1cc(OCc2ccc(C(F)(F)F)nc2)ccc1-c1nc(-c2ccc(F)nc2)[nH]c1Cl [Example 227] | 5.08 | –
29 | – | – | 205 to 208 °C | – | – | COc1cc(OCc2ccc(C(F)(F)F)nc2)ccc1-c1nc(-c2ccc(Cl)nc2)[nH]c1Cl [Example 229] | 2.62 | –
30 | 73 (≈ 137 µM) | 2.3 (≈ 4.32 µM) | – | – | – | COc1cc(OCc2ccc(C(F)(F)F)cn2)ccc1-c1c(Cl)nc(-c2ccc(F)nc2)n1CC1CC1 [Example 296] | 3.48 | –
31 | 20.2 (≈ 43.7 µM) | 0.8 (≈ 1.73 µM) | – | – | – | COc1cc(-c2cnc(-c3ccc(F)nc3)[nH]2)ccc1OCc1ncc(C(F)(F)F)cc1F [Example 324] | 1.95 | –
32 | 93.8 (≈ 199 µM) | 8.1 (≈ 17.2 µM) | – | – | – | COc1cc(OCc2ncc(C(F)(F)F)cc2F)ccc1-c1cnc(C2CCC(F)(F)C2)[nH]1 (stereo not shown) [Example 340] | 2.26 | –
33 | 95.5 (≈ 195 µM) | 5 (≈ 10.2 µM) | – | – | – | CCc1nc(-c2ccc(F)nc2)[nH]c1-c1ccc(OCc2ncc(C(F)(F)F)cc2F)cc1OC [Example 362] | 2.89 | –
34 | 84 (≈ 199 µM) | 42.9 (≈ 102 µM) | – | – | – | COc1cc(OCc2ncc(C(F)(F)F)cc2F)ccc1-c1cnc(C2CCC2)[nH]1 [Example 371] | 3.57 | –
35 | 73.9 (≈ 181 µM) | 72.5 (≈ 178 µM) | – | – | – | COc1cc(OCc2ncc(C(F)(F)F)cc2F)ccc1-c1cnc(C2CC2)[nH]1 [Example 375] | 1.83 | –
36 | 75.2 (≈ 185 µM) | 79.4 (≈ 195 µM) | – | – | – | COc1cc(-c2cnc(C3CC3)[nH]2)ccc1OCc1ncc(C(F)(F)F)cc1F [Example 376] | 1.18 | –
37 | 74.8 (≈ 183 µM) | 62.1 (≈ 152 µM) | – | – | – | COc1cc(-c2cnc(C(C)C)[nH]2)ccc1OCc1ncc(C(F)(F)F)cc1F [Example 382] | 1.41 | –
38 | 96 (≈ 171 µM) | 1.8 (≈ 3.2 µM) | – | – | – | CCCCOC(C)n1cc(-c2ccc(OCc3ncc(C(F)(F)F)cc3F)cc2OC)nc1-c1ccc(F)nc1 (stereo not shown) [Example 389] | 1.63 | –
39 | 60.8 (≈ 128 µM) | < 0.3 | – | – | – | COc1cc(-c2cnc(-c3ccc(F)nc3)[nH]2)ccc1OC(C)c1ncc(C(F)(F)F)cc1F (stereo not shown) [Example 392] | 1.73 | –
40 | 79.2 (≈ 147 µM) | 39.7 (≈ 73.7 µM) | – | – | – | Fc1ccc(-c2ncc(-c3ccc(OCc4ncc(C(F)(F)F)cc4F)cc3OCc3ccccc3)[nH]2)cn1 [Example 398, 2-[(3-(benzyloxy)-4-(2-(6-fluoropyridin-3-yl)-1H-imidazol-5-yl)phenoxy)methyl]-3-fluoro-5-(trifluoromethyl)pyridine] | 2.22 | –
41 | 37 (≈ 75.1 µM) | 2.9 (≈ 5.89 µM) | – | – | – | COc1cc(OCc2ncc(C(F)(F)F)cc2F)ccc1-c1[nH]c(-c2ccc(F)nc2)nc1CO [Example 413, [5-(4-((3-fluoro-5-(trifluoromethyl)pyridin-2-yl)methoxy)-2-methoxyphenyl)-2-(6-fluoropyridin-3-yl)-1H-imidazol-4-yl]methanol] | 2.06 | –
